Assay results taken from ChEMBL document CHEMBL1909046, “DrugMatrix in vitro pharmacology data”.

Assays:
[1] = target: T1, Alpha-2C adrenergic receptor (Homo sapiens, UniProt P18825); test: DRUGMATRIX: Adrenergic Alpha-2C radioligand binding (ligand: [3H] MK-912); type: cell membranes, Sf9, Membrane; conditions: sf9
T1 sequence (P18825 whole entry): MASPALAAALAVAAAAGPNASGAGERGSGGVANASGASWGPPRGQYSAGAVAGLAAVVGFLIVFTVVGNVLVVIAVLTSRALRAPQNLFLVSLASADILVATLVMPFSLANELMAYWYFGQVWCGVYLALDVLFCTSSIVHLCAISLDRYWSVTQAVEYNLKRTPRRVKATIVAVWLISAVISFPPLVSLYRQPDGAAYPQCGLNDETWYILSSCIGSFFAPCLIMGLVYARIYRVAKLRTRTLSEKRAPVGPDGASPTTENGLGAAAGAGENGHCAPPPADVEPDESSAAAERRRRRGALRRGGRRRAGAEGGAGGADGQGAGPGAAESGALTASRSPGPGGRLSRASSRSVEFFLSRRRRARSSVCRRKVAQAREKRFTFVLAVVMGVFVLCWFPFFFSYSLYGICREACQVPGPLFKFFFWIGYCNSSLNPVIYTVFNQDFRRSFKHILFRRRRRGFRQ

[2] = target: Tyrosine-protein kinase Lck (Homo sapiens, UniProt P06239); test: DRUGMATRIX: Protein Tyrosine Kinase, LCK enzyme inhibition (substrate: Poly(Glu:Tyr)); type: cell-based, Insect cells; conditions: Not Active = under 50% inhibition at 10 µM
[3] = target: Kappa-type opioid receptor (Homo sapiens, UniProt P41145); test: DRUGMATRIX: Opiate kappa (OP2, KOP) radioligand binding (ligand: [3H] Diprenorphine); type: cell membranes, HEK293, Membrane; conditions: hek293; Not Active = under 50% inhibition at 10 µM
[4] = target: 5-hydroxytryptamine receptor 4 (Cavia porcellus, UniProt O70528); type: cell membranes, Dunkin-Hartley, Striatum, Membrane; also: in other assays of this panel Not Active means under 50% inhibition at 10 µM
[5] = target: Aldo-keto reductase family 1 member B1 (Rattus norvegicus, UniProt P07943); test: biochemical; type: tissue-based, Lens of camera-type eye;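 also: inhibition of aldose reductase enzyme activity, measured with DL-glyceraldehyde as the substrate; in other assays of this panel Not Active means under 50% inhibition at 10 µM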
[6] = DRUGMATRIX: Potassium Channel [KATP] radioligand binding (ligand: [3H] Glyburide); type: cell membranes, Membrane; conditions: hit-t15; Not Active = under 50% inhibition at 10 µM

Sequence of Tyrosine-protein kinase Lck (P06239 whole entry): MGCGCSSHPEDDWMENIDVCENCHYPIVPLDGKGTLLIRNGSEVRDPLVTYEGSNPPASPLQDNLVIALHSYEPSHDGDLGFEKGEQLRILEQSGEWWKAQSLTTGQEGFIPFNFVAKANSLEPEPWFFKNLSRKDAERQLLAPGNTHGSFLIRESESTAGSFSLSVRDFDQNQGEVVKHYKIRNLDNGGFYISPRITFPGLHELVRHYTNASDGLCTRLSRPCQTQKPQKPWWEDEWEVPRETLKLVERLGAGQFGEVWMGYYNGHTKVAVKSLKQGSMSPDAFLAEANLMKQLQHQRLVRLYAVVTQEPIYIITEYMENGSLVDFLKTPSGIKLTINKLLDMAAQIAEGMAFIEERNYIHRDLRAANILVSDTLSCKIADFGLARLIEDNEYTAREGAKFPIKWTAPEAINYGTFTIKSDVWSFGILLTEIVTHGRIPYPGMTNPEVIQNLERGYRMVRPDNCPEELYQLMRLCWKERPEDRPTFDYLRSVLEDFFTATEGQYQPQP
Sequence of Kappa-type opioid receptor (P41145 whole entry): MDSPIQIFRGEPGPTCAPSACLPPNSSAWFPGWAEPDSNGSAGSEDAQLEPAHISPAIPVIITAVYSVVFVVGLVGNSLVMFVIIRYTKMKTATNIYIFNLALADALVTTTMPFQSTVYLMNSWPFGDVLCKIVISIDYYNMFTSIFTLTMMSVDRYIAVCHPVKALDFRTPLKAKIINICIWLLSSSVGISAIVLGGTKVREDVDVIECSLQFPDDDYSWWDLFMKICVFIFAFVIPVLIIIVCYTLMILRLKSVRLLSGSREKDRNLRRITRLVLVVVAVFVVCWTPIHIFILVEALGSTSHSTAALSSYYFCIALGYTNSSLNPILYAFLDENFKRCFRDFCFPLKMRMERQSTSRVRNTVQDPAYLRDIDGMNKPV
Sequence of 5-hydroxytryptamine receptor 4 (O70528 whole entry): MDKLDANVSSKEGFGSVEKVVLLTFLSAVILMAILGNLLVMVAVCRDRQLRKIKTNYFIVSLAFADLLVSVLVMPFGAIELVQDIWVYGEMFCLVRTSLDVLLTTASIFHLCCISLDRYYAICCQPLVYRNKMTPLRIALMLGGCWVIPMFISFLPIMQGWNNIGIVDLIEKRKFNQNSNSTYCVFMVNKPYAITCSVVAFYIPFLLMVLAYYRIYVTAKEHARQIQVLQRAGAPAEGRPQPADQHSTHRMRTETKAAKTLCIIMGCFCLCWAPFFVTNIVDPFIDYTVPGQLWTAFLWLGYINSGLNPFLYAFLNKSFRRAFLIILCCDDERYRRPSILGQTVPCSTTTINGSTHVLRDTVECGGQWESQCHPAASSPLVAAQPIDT

CC(C)CN(C[C@@H](O)[C@H](Cc1ccccc1)NC(=O)O[C@H]1CCOC1)S(=O)(=O)c1ccc(N)cc1
IC50 [1]: Not Active | IC50 ([2]; insect cells): Not Active | IC50 [3]: Not Active | IC50 [4]: Not Active | IC50 [5]: Not Active | IC50 [6]: Not Active | Ki [6]: Not Active

c1ccc(Nc2ccc(Nc3ccccc3)cc2)cc1
IC50 [1]: Not Active | IC50 ([2]; insect cells): Not Active | IC50 [3]: Not Active | IC50 [4]: Not Active | IC50 [5]: Not Active | IC50 [6]: Not Active | Ki [6]: Not Active

COc1cc2c3cc1Oc1cc(ccc1O)C[C@@H]1c4c(cc(OC)c(O)c4Oc4ccc(cc4)C[C@@H]3N(C)CC2)CC[N+]1(C)C.[Cl-]
IC50 [1]: Not Active | IC50 ([2]; insect cells): Not Active | IC50 [3]: Not Active | IC50 [4]: Not Active | IC50 [5]: Not Active | IC50 [6]: Not Active | Ki [6]: Not Active

NC(=O)N1c2ccccc2CCc2ccccc21
IC50 [1]: Not Active | IC50 ([2]; insect cells): Not Active | IC50 [3]: Not Active | IC50 [4]: Not Active | IC50 [5]: Not Active | IC50 [6]: Not Active | Ki [6]: Not Active

O=C1CC[C@@H](N2C(=O)c3ccccc3C2=O)C(=O)N1
IC50 [1]: Not Active | IC50 ([2]; insect cells): Not Active | IC50 [3]: Not Active | IC50 [4]: Not Active | IC50 [5]: Not Active | IC50 [6]: Not Active | Ki [6]: Not Active

Cc1onc(O)c1CC(N)C(=O)O (racemic) [(R,S)-AMPA]
IC50 [1]: Not Active | IC50 ([2]; insect cells): Not Active | IC50 [3]: Not Active | IC50 [4]: Not Active | IC50 [5]: Not Active | IC50 [6]: Not Active | Ki [6]: Not Active

Cc1ccc2cc3c(ccc4ccccc43)c3c2c1CC3 [3-METHYLCHOLANTHRENE]
IC50 [1]: Not Active | IC50 ([2]; read-out: IC50): 55.5 µM | IC50 [4]: Not Active | IC50 [5]: Not Active | IC50 [6]: Not Active | Ki [6]: Not Active

CC[C@@]1(O)C[C@H](O[C@H]2C[C@H](N(C)C)[C@H](O[C@H]3C[C@H](O)[C@H](O[C@H]4CCC(=O)[C@H](C)O4)[C@H](C)O3)[C@H](C)O2)c2c(cc3c(c2O)C(=O)c2c(O)cccc2C3=O)[C@H]1C(=O)OC [ACLARUBICIN]
IC50 [1]: Not Active | IC50 ([2]; insect cells): Not Active | IC50 [3]: Not Active | IC50 [4]: Not Active | IC50 [5]: Not Active | IC50 [6]: Not Active | Ki [6]: Not Active

Nc1nc2c(ncn2COCCO)c(=O)[nH]1 [ACYCLOVIR]
IC50 [1]: Not Active | IC50 ([2]; insect cells): Not Active | IC50 [3]: Not Active | IC50 [4]: Not Active | IC50 [5]: Not Active | IC50 [6]: Not Active | Ki [6]: Not Active

Cc1c(C)c2c(c(C)c1O)CC[C@@](C)(CCC[C@H](C)CCC[C@H](C)CCCC(C)C)O2 [ALPHA-TOCOPHEROL]
IC50 [1]: Not Active | IC50 ([2]; insect cells): Not Active | IC50 [3]: Not Active | IC50 [4]: Not Active | IC50 [5]: Not Active | IC50 [6]: Not Active | Ki [6]: Not Active

CN(C)c1nc(N(C)C)nc(N(C)C)n1 [ALTRETAMINE]
IC50 [1]: Not Active | IC50 ([2]; insect cells): Not Active | IC50 [3]: Not Active | IC50 [4]: Not Active | IC50 [5]: Not Active | IC50 [6]: Not Active | Ki [6]: Not Active

Nc1c(Br)cc(Br)cc1CN[C@H]1CC[C@H](O)CC1 [AMBROXOL]
IC50 [1]: Not Active | IC50 ([2]; insect cells): Not Active | IC50 [3]: Not Active | IC50 [4]: Not Active | IC50 [5]: Not Active | IC50 [6]: Not Active | Ki [6]: Not Active

NCCCCCC(=O)O [AMINOCAPROIC ACID]
IC50 [1]: Not Active | IC50 ([2]; insect cells): Not Active | IC50 [3]: Not Active | IC50 [4]: Not Active | IC50 [5]: Not Active | IC50 [6]: Not Active | Ki [6]: Not Active

CCC1(c2ccc(N)cc2)CCC(=O)NC1=O (stereo not drawn) [AMINOGLUTETHIMIDE]
IC50 [1]: Not Active | IC50 ([2]; insect cells): Not Active | IC50 [3]: Not Active | IC50 [4]: Not Active | IC50 [5]: Not Active | IC50 [6]: Not Active | Ki [6]: Not Active

Cc1ccc(/N=C/N(C)/C=N/c2ccc(C)cc2C)c(C)c1 [AMITRAZ]
IC50 [1]: Not Active | IC50 ([2]; insect cells): Not Active | IC50 [4]: Not Active | IC50 [5]: Not Active | IC50 [6]: Not Active | Ki [6]: Not Active

CCOC(=O)C1=C(COCCN)NC(C)=C(C(=O)OC)C1c1ccccc1Cl (stereo not drawn) [AMLODIPINE]
IC50 ([2]; insect cells): Not Active | IC50 [3]: Not Active | IC50 [4]: Not Active | IC50 [5]: Not Active | IC50 [6]: Not Active | Ki [6]: Not Active

COc1ccc(C[C@H]2NC[C@H](O)[C@H]2OC(C)=O)cc1 [ANISOMYCIN]
IC50 [1]: Not Active | Ki [1]: Not Active | IC50 ([2]; insect cells): Not Active | Ki ([2]; insect cells): Not Active | IC50 [4]: Not Active | Ki [4]: Not Active | IC50 [5]: Not Active | Ki [5]: Not Active | IC50 [6]: Not Active | Ki [6]: Not Active

Nc1ncn([C@@H]2O[C@H](CO)[C@@H](O)[C@H]2O)c(=O)n1 [AZACITIDINE]
IC50 [1]: Not Active | IC50 ([2]; insect cells): Not Active | IC50 [3]: Not Active | IC50 [4]: Not Active | IC50 [5]: Not Active | IC50 [6]: Not Active | Ki [6]: Not Active

CN(C)C(=O)Oc1cc(OC(=O)N(C)C)cc(C(O)CNC(C)(C)C)c1 (stereo not drawn) [BAMBUTEROL]
IC50 [1]: Not Active | IC50 ([2]; insect cells): Not Active | IC50 [3]: Not Active | IC50 [4]: Not Active | IC50 [5]: Not Active | IC50 [6]: Not Active | Ki [6]: Not Active

c1ccc2c(c1)c1cccc3ccc4cccc2c4c31 [BENZO[E]PYRENE]
IC50 [1]: Not Active | IC50 ([2]; insect cells): Not Active | IC50 [3]: Not Active | IC50 [4]: Not Active | IC50 [5]: Not Active | IC50 [6]: Not Active | Ki [6]: Not Active

CNCCc1ccccn1 [BETAHISTINE]
IC50 [1]: Not Active | IC50 ([2]; insect cells): Not Active | IC50 [3]: Not Active | IC50 [4]: Not Active | IC50 [5]: Not Active | IC50 [6]: Not Active | Ki [6]: Not Active

O=C(O)CCCc1ccc(N(CCCl)CCCl)cc1 [CHLORAMBUCIL]
IC50 [1]: Not Active | IC50 ([2]; insect cells): Not Active | IC50 [4]: Not Active | IC50 ([5]; read-out: IC50): 9.41 µM | IC50 [6]: Not Active | Ki [6]: Not Active

CN(C)CCCN1c2ccccc2Sc2ccc(Cl)cc21 [CHLORPROMAZINE]
IC50 ([2]; insect cells): Not Active | IC50 [4]: Not Active | IC50 [5]: Not Active | IC50 [6]: Not Active | Ki [6]: Not Active

CC1=C2C(=CO[C@H](C)[C@H]2C)C(O)=C(C(=O)O)C1=O [CITRININ]
IC50 [1]: Not Active | IC50 ([2]; insect cells): Not Active | IC50 [4]: Not Active | IC50 [5]: Not Active | IC50 [6]: Not Active | Ki [6]: Not Active

CC(C)(C)NCC(O)c1cc(Cl)c(N)c(Cl)c1 (stereo not drawn) [CLENBUTEROL]
IC50 [1]: Not Active | IC50 ([2]; insect cells): Not Active | IC50 [4]: Not Active | IC50 [5]: Not Active | IC50 [6]: Not Active | Ki [6]: Not Active

Cc1ccc(N(CC2=NCCN2)c2cccc(O)c2)cc1 [PHENTOLAMINE]
IC50 ([2]; insect cells): Not Active | IC50 [3]: Not Active | IC50 [4]: Not Active | IC50 [5]: Not Active | IC50 [6]: Not Active | Ki [6]: Not Active

CADMIUM ACETATE
IC50 [1]: Not Active | Ki [1]: Not Active | IC50 [4]: Not Active | Ki [4]: Not Active | IC50 [5]: Not Active | Ki [5]: Not Active | IC50 [6]: Not Active | Ki [6]: Not Active

LEAD (II) ACETATE
IC50 [1]: Not Active | Ki [1]: Not Active | IC50 ([2]; insect cells): Not Active | Ki ([2]; insect cells): Not Active | IC50 [4]: Not Active | Ki [4]: Not Active | IC50 [5]: Not Active | Ki [5]: Not Active | IC50 [6]: Not Active | Ki [6]: Not Active

LIPOPOLYSACCHARIDE E. COLI O55:B5
IC50 [1]: Not Active | Ki [1]: Not Active | IC50 ([2]; insect cells, read-out: IC50): 0.294 µM | IC50 [4]: Not Active | Ki [4]: Not Active | IC50 [5]: Not Active | Ki [5]: Not Active | IC50 [6]: Not Active | Ki [6]: Not Active
